Series [1] concerns ANG. The experiment in a line: Nuclear translocation of ANG. Type of series: cell-based. Conditions: inhibitors tested.
The next series relates to angiogenesis. Conditions: literature reports; cited from earlier work.
Series [2] has as its system ANG. Conditions: literature reports; cited from earlier work.
The conditions of series [3]: mouse, in vivo, sc; cited from earlier work.
A further series concerns LNCaP cells. The experiment in a line: LNCaP cell proliferation in phenol red-free and steroid-free medium. Type of series: cell-based, human. Conditions: ANG 0.1 μg/ml, DHT 10 nM. How it is done:
(a) ANG stimulates LNCaP cell proliferation in the absence of androgens. Cells were culture in phenol red-free and charcoal/dextran-stripped (steroid-free) FBS for 2 day and stimulated with DHT (10 nM), ANG (0.1 μg/ml), or a mixture of the two for the time indicated. (b) Dose dependence. ANG was added to the cells and cultured for 4 days. (c) Anti-ANG mAb 26-2F inhibits DHT-induced cell proliferation. LNCaP cells were stimulated with 10 nM DHT in the presence of 26-2F or a control non-immune IgG for 3 days. (d) ANG over-expression promotes LNCaP proliferation in vitro. The vector control (pCI-Neo) and ANG transfectants (pCI-ANG) were cultured in phenol red-free and steroid-free medium for the time indicated. (e) Xenograft growth in castrated SCID mice. A mixture of 70 μl cell suspension (1×10^6 cells) and 30 μl Matrigel was injected s.c. per mouse (8 per group). The mice were castrated or sham-operated at the same time. Tumors were inspected and measured twice a week and the animals were sacrificed after 8 weeks of observation. (f) Endogenous ANG of LNCaP cells is essential for androgen-induced rRNA transcription. LNCaP cells were cultured in phenol red-free and steroid-free medium and incubated with DHT (10 nM), ANG (0.1 μg/ml), anti-ANG mAb 26-2F (60 μg/ml) or a mixture of DHT and 26-2F for 2 h. […]

A further series relates to established PIN. The experiment in a line: Reversal of established PIN in 12-week-old MPAKT mice. Type of series: in vivo. Conditions: for AKT expression and phosphorylation (IHC) / established PIN phenotype (H&E) / rRNA transcription / 47S rRNA level (ISH): daily i.p. 4 weeks from week 12.
For series [4] the following is noted: in vivo; cited from earlier work.
The test system of series [5] is PC-3 human prostate cancer cells. Conditions: nude mice, literature; cited from earlier work.
The subject of the next series is AKT-induced PIN. The experiment in a line: Prevention of AKT-induced PIN in 4-week-old MPAKT mice by small-molecule ANG inhibitors. Conditions: for 47S rRNA level / transcription (ISH) / AKT phosphorylation (IHC) / localization of ANG in prostate epithelial cells (IHC) / PIN formation (H&E): daily i.p. 4 weeks from week 4; for PIN formation (H&E): neamine, neomycin 10 mg/kg, N65828 4 mg/kg.

A short description of series [6]: Acute LD50 (subcutaneous) in mice. The class given is in vivo.
For series [7] the following is noted: cited from earlier work.
The subject of series [8] is PC-3 human prostate cancer cells. The experiment in a line: Xenograft growth of PC-3 cell tumors in athymic mice. Type of series: in vivo. Here is the method: Male athymic mice were inoculated with 5×10^5 of PC-3 cells, and treated sub-cutaneously (s.c.) with PBS or neamine at a dose of 30 mg/kg body weight twice weekly for 8 weeks. Twelve mice were used per group. (A) Mice were examined by palpation for tumor appearance. (B) Tumor sizes were measured with a caliper and were expressed as length×width^2. At day 56, mice were sacrificed and tumor tissues were removed, photographed (C) and weighed (D).
Xenograft growth of PC-3 cell tumors. Five-week-old male athymic mice were inoculated s.c. with 100 μl of a mixture containing 5×10^5 PC-3 cells and 33 μl of Matrigel. The mice were treated s.c. with PBS or neamine (30 mg/kg) twice weekly for 8 weeks. Tumor sizes were measured every 3 days and recorded in mm^3 (Length×width^2). Mice were sacrificed at day 56 and the tumors were removed and the wet weights of the PC-3 tumors were recorded.

Series [9] can be described thus: Adverse side effects in the treated mice of these studies. Type of series: in vivo. Conditions: 30 mg/kg s.c. and 10 mg/kg i.p.
Series [10] relates to HT-29 human colon adenocarcinoma. Conditions: cited from earlier work.
The next series deals with PC-3 cell tumor tissues. Kind of series: IHC and ISH of PC-3 xenograft tumor tissues (ANG localization, 47S rRNA, PCNA, vWF). Type of series: in vivo, athymic mice. Here is the method:
PBS- and neamine-treated tumor tissues were fixed in formalin, embedded in paraffin, and sections of […] were cut. (A) Localization of ANG was determined by IHC with anti-human ANG monoclonal antibody 26-2F. […] (C) Proliferating cells were stained with an anti-PCNA monoclonal antibody (mAb). PCNA positive and total numbers of cells were counted in 5 randomly selected areas at 200× magnification. (D) Blood vessels were stained with an anti-vWF antibody and counted in five most vascularized areas at 200× magnification.

Series [11] has as its system MDA-MB-435 human breast cancer cells. Conditions: cited from earlier work.

Data on eleven compounds can be found in patent US20210223230A1, “Neamine Compositions and Methods of Use Thereof” (President and Fellows of Harvard College, priority 2008, published 2021).

“And” between values parts separate entries of the source, which are not always exact repeats. Equal entries are not always repeated. “Also recorded” adds a separate entry of the source. Where two headings read alike, the source gives them in different places. A value given as a limit tells only on which side of the number the result lay.

In the case of `NC[C@@H]1O[C@H](O[C@H]2[C@@H](O)[C@H](O[C@@H]3[C@@H](O)[C@H](N)C[C@H](N)[C@H]3O[C@H]3O[C@H](CO)[C@@H](O)[C@H](O)[C@H]3N)O[C@@H]2CO)[C@H](N)[C@@H](O)[C@@H]1O` [paromomycin], the “effect on nuclear translocation of ANG” value in the series on ANG [1] is “does not detectably block”; in the series on ANG [2] it was “do not block”. Moreover, in the series with angiogenesis, the anti-angiogenic activity entry was “not anti-angiogenic”.
For `[H]/N=C(/N)N[C@H]1[C@H](O)[C@@H](O)[C@H](O[C@@H]2O[C@@H](C)[C@](O)(C=O)[C@H]2O[C@@H]2O[C@@H](CO)[C@H](O)[C@@H](O)[C@@H]2NC)[C@@H](N/C(N)=N\[H])[C@@H]1O` [streptomycin], the “acute LD50 (subcutaneous) in mice” value in [3] is listed as 600 mg/kg. For the same compound, in the series with angiogenesis, the anti-angiogenic activity result is “not anti-angiogenic”. Moreover, the “effect on nuclear translocation of ANG” value with ANG [2] is listed as “do not block”.
Consider `C[C@]12CCC(=O)C[C@@H]1CC[C@@H]1[C@@H]2CC[C@]2(C)[C@@H](O)CC[C@@H]12` [DHT, dihydrotestosterone, reference compound], for which the “LNCaP cell proliferation in the absence of androgens” value with LNCaP cells is reported as “stimulates”.
Take `NCC[C@H](O)C(=O)N[C@@H]1C[C@H](N)[C@@H](O[C@H]2O[C@H](CN)[C@@H](O)[C@H](O)[C@H]2O)[C@H](O)[C@H]1O[C@H]1O[C@H](CO)[C@@H](O)[C@H](N)[C@H]1O` [amikacin]: in the series on angiogenesis, the anti-angiogenic activity result is “not anti-angiogenic”. In addition, in the series with ANG [2], the “effect on nuclear translocation of ANG” value is “do not block”.
Turning to gentamicin, the anti-angiogenic activity result with angiogenesis is on record as “not anti-angiogenic”. Further, the “effect on nuclear translocation of ANG” value with ANG [2] is reported as “do not block”.
Consider `COc1ccc2c(c1)CC[C@@H]1[C@@H]2CC[C@]2(C)[C@@H](NCCCCCCN3C(=O)C=CC3=O)CC[C@@H]12` [U-73122], for which the “effect on nuclear translocation of ANG” value in the series on ANG [1] is “only marginally block”.
As for `O=c1c(-c2ccc(O)cc2)coc2cc(O)cc(O)c12` [Genistein], the “effect on nuclear translocation of ANG” value in the series with ANG [1] is on record as “no detectable effect”.
`COc1ccc2c(c1)CC[C@@H]1[C@@H]2CC[C@]2(C)[C@@H](NCCCCCCN3C(=O)CCC3=O)CC[C@@H]12` [U-73343]: the “effect on nuclear translocation of ANG” value with ANG [1] was “only marginally block”.
For neomycin, in the series on ANG [2], the “effect on nuclear translocation of ANG” value is listed as “blocks”. Also, in the series on established PIN, the “AKT expression and phosphorylation (IHC)” value is listed as “not different from that of the control group”; the “established PIN phenotype (H&E)” value was “reversed”; the “rRNA transcription / 47S rRNA level (ISH)” value was “dramatically decreased”. In the series with established PIN (neomycin 10 mg/kg, N65828 4 mg/kg daily i.p. 4 weeks from week 12, control 0.95±0.11), the apoptotic index is 1.95±0.19 caspase 3 positive cells per duct. The luminal cell size entry in the series with established PIN (neomycin 4 weeks from week 12) was “restored cell size to normal”. Besides, in the series on established PIN (neomycin 4 weeks from week 12, control 69.8), the “size of the ventral prostate of a representative mouse” value is recorded as 44.3 mm^3. For the same compound, the “renal cortical levels relative to circulating levels in serum” value in [4] was at most 20 times. In addition, the “xenograft growth of PC-3 cells” value in series [5] is reported as “inhibit”. Also, in the series with AKT-induced PIN, the “47S rRNA level / transcription (ISH)” value is recorded as “inhibited”, the “AKT phosphorylation (IHC)” value was “not altered”, the “localization of ANG in prostate epithelial cells (IHC)” value is given as “extracellular” and the “PIN formation (H&E)” value was “prevented PIN formation”.
For `CN[C@@H]1C[C@H]2O[C@@](C)([C@@H]1OC)n1c3ccccc3c3c4c(c5c6ccccc6n2c5c31)C(=O)NC4` [staurosporine], the “effect on nuclear translocation of ANG” value with ANG [1] was “no detectable effect”.
`NC[C@H]1O[C@H](O[C@H]2[C@H](O)[C@@H](O)[C@H](N)C[C@@H]2N)[C@H](N)[C@@H](O)[C@@H]1O` [neamine]: in series [6] (30 mg/kg s.c. vs LD50 1250 mg/kg), the “fold by which the 30 mg/kg dose is lower than the reported LD50” value was 42 fold. Besides, the “fold by which LD50 is higher than the highest scheduled dose” value in series [6] (LD50 1,250 mg/kg vs 160 mg/kg) was 7.8 fold. Further, the anti-angiogenic activity entry in the series on angiogenesis is “equally effective”. Also, in series [7] (cell and organ culture), the “nephrotoxicity relative to that of neomycin” value is listed as around 5% and the “ototoxicity relative to that of neomycin” value is recorded as around 6%. Moreover, the “toxicity relative to neomycin (fold less toxic)” value in series [7] (toxicity profile) was “close to that of streptomycin and kanamycin”. For the same compound, the “effect on nuclear translocation of ANG” value in the series with ANG [2] is “comparable activity”. For the same compound, in the series on established PIN, the “AKT expression and phosphorylation (IHC)” value is “not affected”; the “established PIN phenotype (H&E)” value is reported as “shrank established PIN”; the “rRNA transcription / 47S rRNA level (ISH)” value was “inhibited”. In addition, the “apoptotic index (TUNEL)” value in the series with established PIN (neamine 10 mg/kg daily i.p. 4 weeks from week 12, untreated 0.89±0.12) is 2.15±0.17 per duct. The “mice with PIN regression” value in the series with established PIN (neamine 10 mg/kg daily i.p. 4 weeks, 12 mice) is “all 12”. The “percentage of glands having PIN” value in the series on established PIN (neamine 10 mg/kg daily i.p. 4 weeks, before/control 95.2±3.2) is 33% and 33.4±5.2%. Further, the “inhibition of tumor growth” value in series [8] (day 56, from tumor weight vs control) is on record as 72.5%. This compound also gave an average tumor weight in series [8] (day 56, neamine 30 mg/kg s.c. twice weekly, control 620±310) of 170 ± 50 mg. Also, the “tumor growth rate in animals that did develop tumors” value in series [8] (neamine 30 mg/kg s.c. twice weekly) is on record as “decreased significantly”. The “animals in which tumor establishment was prevented” value in [8] (neamine 30 mg/kg s.c. twice weekly for 8 weeks, n=12) was found to be 50%. For the same compound, the “animals with palpable tumors at day 20” value in series [8] (neamine 30 mg/kg s.c. twice weekly, day 20) is 5 of the 12. Besides, the “acute or chronic adverse side effects” value in series [9] is given as “No acute or chronic adverse side effects; also recorded: not observed”. For the same compound, the xenograft growth entry in series [10] is “inhibits”. Moreover, in the series with PC-3 cell tumor tissues (from PCNA positive cells vs control), the “decrease in cell proliferation” value stood at 66%. For the same compound, the “decrease in tumor angiogenesis” value in the series on PC-3 cell tumor tissues (from vessel density vs control) is recorded as 72.8%. Also, the PCNA positive cells with PC-3 cell tumor tissues (neamine-treated PC-3 tumors, control 75.4±6) is recorded as 25.6±6.4%. For the same compound, the “vessel density (vWF)” value in the series on PC-3 cell tumor tissues (neamine-treated PC-3 tumors, control 82±3.2) came out at 22.3±9.6 vessels per mm^2. Also, in the series with PC-3 cell tumor tissues (neamine-treated PC-3 tumors, nuclear in untreated), the “localization of ANG in tumor cells (IHC, 26-2F)” value was “most of the ANG is extracellular”. Moreover, in the series on PC-3 cell tumor tissues (neamine-treated vs control tumor tissues), the “47S rRNA level (ISH)” value is “decreased significantly”. Further, the xenograft growth entry in series [11] was “inhibits”. Further, in the series with AKT-induced PIN, the “47S rRNA level / transcription (ISH)” value is on record as “decreased dramatically”; the “AKT phosphorylation (IHC)” value is on record as “did not differ from those of controls”; the “localization of ANG in prostate epithelial cells (IHC)” value is “predominantly cytoplasmic and extracellular”; the “PIN formation (H&E)” value is on record as “inhibited PIN formation”. Moreover, the “vessel density (CD31) in ventral prostate” value in the series with AKT-induced PIN (neamine 10 mg/kg daily 4 weeks, control 11.5±4.5) stood at 4±0.5 per mm^2. Also, the Ki-67 positive cells in the series with AKT-induced PIN (neamine 10 mg/kg daily 4 weeks, untreated PIN 61.1±9.3) is 24.9±8.4%. In addition, the “percentage of PIN in the ventral prostate” value with AKT-induced PIN (neamine 10 mg/kg daily i.p. 4 weeks from week 4, control 95.1±4.3) was 39.6±1.4%.
